A value given as a limit tells only on which side of the number the result lay.

In this assay the target is T1, biotinylated wild-type menin and MLL-AF9 fusion protein (menin/MLL binding) (Homo sapiens, UniProt O00255).
T1 construct: made in house; host or cells: menin: E. coli; MLL-AF9-FLAG: HEK293 cells, used as cleared lysate
T1 sequence (O00255 1-610): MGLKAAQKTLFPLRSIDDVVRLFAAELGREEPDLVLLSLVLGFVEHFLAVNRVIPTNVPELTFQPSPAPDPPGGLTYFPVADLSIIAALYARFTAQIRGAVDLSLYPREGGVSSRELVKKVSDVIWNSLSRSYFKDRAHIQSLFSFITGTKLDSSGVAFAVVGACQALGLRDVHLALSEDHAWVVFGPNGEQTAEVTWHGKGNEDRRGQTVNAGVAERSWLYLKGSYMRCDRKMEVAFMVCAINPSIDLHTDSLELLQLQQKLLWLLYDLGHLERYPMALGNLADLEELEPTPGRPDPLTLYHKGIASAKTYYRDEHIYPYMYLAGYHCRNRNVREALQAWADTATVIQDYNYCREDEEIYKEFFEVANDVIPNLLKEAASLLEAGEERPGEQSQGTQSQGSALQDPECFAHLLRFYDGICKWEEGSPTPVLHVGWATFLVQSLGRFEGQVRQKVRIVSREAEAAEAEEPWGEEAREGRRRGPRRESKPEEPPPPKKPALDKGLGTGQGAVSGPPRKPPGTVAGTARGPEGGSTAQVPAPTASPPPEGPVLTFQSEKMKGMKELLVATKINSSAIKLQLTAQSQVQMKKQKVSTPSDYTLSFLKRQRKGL
Description: Assay 1: menin/MLL binding AlphaLISA assay, wild-type menin. The note with it: Table 30; column head does not say wild-type or mutated menin. Here is the method:
Potencies of inhibitor compounds against menin/MLL binding were assessed by AlphaLISA assay using biotinylated (1) wild-type menin or (2) mutated menin (described in Huang et al, 2012, Nature, 482, 542-546) and MLL-AF9 fusion protein bearing a FLAG epitope at its C-terminus. Menin proteins were expressed in E. coli and covalently modified with biotin using EZ-Link™ Sulfo-NHS-Biotin (ThermoFisher Cat.No. 21217) according to manufacturer's protocol. MLL1-1,396 fused to AF91-92 and the C-terminal FLAG peptide was expressed in HEK293 cells and used as a lysate cleared at 21,000×g for 10 min.
Compounds (2 μL of solutions in DMSO) were dispensed in white 96-well half-area plates (Corning Cat.No. 3693) and incubated for 30 min at RT with 5 nM biotinylated menin and appropriate amount of MLL-AF9-FLAG lysate in 40 μL of 50 mM Tris-HCl buffer pH 7.4 containing 5% (v/v) DMSO, 50 mM NaCl, 0.01% (w/v) bovine serum albumin (BSA) and 1 mM DTT. To this incubation mixture, 40 μL of AlphaLISA anti-FLAG acceptor (PerkinElmer Cat.No. AL112C) and streptavidin donor (PerkinElmer Cat.No. 6760002) beads (10 μg/mL each) was added and incubation continued at RT for 60 min. Alpha (amplified luminescent proximity homogeneous assay) signal was measured on an Envision multi-label plate reader at the end of the incubation. All steps were conducted under dim fluorescent light.
These percent inhibition values were regressed against compound concentrations in the assay using four parameter logit non-linear curve fitting (XLFit, IDBS). The IC50 values were derived from the curve fitting as inflection points on the dose-response curves and are set out in Table 30 below.
`CC(C)N(C(=O)c1cc(F)ccc1Oc1cncnc1N1CCC2(CCC(N)(Cc3ccc(C#N)cc3)C2)C1)C(C)C` (single isomer, unassigned) [Example 22B, 2-((4-(7-amino-7-(4-cyanobenzyl)-2-azaspiro[4.4]nonan-2-yl)pyrimidin-5-yl)oxy)-5-fluoro-N,N-diisopropylbenzamide] showed a half-inhibitory concentration (IC50) of less than 100 nM.

In the case of `CC(C)N(C(=O)c1cc(F)ccc1Oc1cncnc1N1CCC2(CC(O)C(Cc3ccc4[nH]c(=O)[nH]c4c3)C2)C1)C(C)C` (single isomer, unassigned) [Example 23B, 5-fluoro-2-((4-(7-hydroxy-8-((2-oxo-2,3-dihydro-1H-benzo[d]imidazol-5-yl)methyl)-2-azaspiro[4.4]nonan-2-yl)pyrimidin-5-yl)oxy)-N,N-diisopropylbenzamide], the IC50 is 100 to 1000 nM.

On to `CC(C)n1nccc1-c1cc(F)ccc1Oc1cncnc1N1CCC2(CCN(C(=O)C(N)C3CCCCC3)C2)C1` (single isomer, unassigned) [Example 206B, 2-amino-2-cyclohexyl-1-(7-(5-(4-fluoro-2-(1-isopropyl-1H-pyrazol-5-yl)phenoxy)pyrimidin-4-yl)-2,7-diazaspiro[4.4]nonan-2-yl)ethanone], for which the IC50 was 100 to 1000 nM.

The molecule `CC(C)n1nccc1-c1cc(F)ccc1Oc1cncnc1N1CCC2(CCN(C(=O)C(N)C3CCCCC3)C2)C1` (single isomer, unassigned) [Example 206C, 2-amino-2-cyclohexyl-1-(7-(5-(4-fluoro-2-(1-isopropyl-1H-pyrazol-5-yl)phenoxy)pyrimidin-4-yl)-2,7-diazaspiro[4.4]nonan-2-yl)ethanone] yielded a concentration for half-maximal inhibition (IC50) of 100 to 1000 nM.

For the molecule `N#Cc1ccc(-c2cc(F)ccc2Oc2cncnc2N2CCC3(CCC(N)(Cc4ccccc4)C3)C2)c(C2CC2)c1` (single isomer, unassigned) [Example 250A, 2′-((4-(7-amino-7-benzyl-2-azaspiro[4.4]nonan-2-yl)pyrimidin-5-yl)oxy)-2-cyclopropyl-5′-fluoro-[1,1′-biphenyl]-4-carbonitrile], the half-inhibitory concentration (IC50) was in the range of 100 to 1000 nM.

For the molecule `CC(C)n1nccc1-c1cc(F)ccc1Oc1cncnc1N1CCC2(CC(=O)N(Cc3ccc4[nH]c(=O)[nH]c4c3)C2)C1` (stereo not shown) [Example 13, 5-((7-(5-(4-fluoro-2-(1-isopropyl-1H-pyrazol-5-yl)phenoxy)pyrimidin-4-yl)-3-oxo-2,7-diazaspiro[4.4]nonan-2-yl)methyl)-1H-benzo[d]imidazol-2(3H)-one], the IC50 is less than 100 nM.

`Cc1noc(C(C)C)c1-c1cc(F)ccc1Nc1cncnc1N1CC2(CN(CC3CCOCC3)C2)C1` [Example 14A, N-(4-fluoro-2-(5-isopropyl-3-methylisoxazol-4-yl)phenyl)-4-(6-((tetrahydro-2H-pyran-4-yl)methyl)-2,6-diazaspiro[3.3]heptan-2-yl)pyrimidin-5-amine] had an IC50 of less than 100 nM.

Take `CP(C)(=O)c1cc(F)ccc1Oc1cncnc1N1CCC2(CCN(Cc3ccc4[nH]c(=O)[nH]c4c3)C2)C1` (stereo not shown) [Example 17, 5-((7-(5-(2-(dimethylphosphoryl)-4-fluorophenoxy)pyrimidin-4-yl)-2,7-diazaspiro[4.4]nonan-2-yl)methyl)-1H-benzo[d]imidazol-2(3H)-one]: the concentration for half-maximal inhibition (IC50) lay in the range of 100 to 1000 nM.

The molecule `CC(C)c1ncncc1-c1cc(F)ccc1Oc1cncnc1N1CCC2(CC(NCc3ccc(F)cc3)CO2)C1` (stereo not shown) [Example 20, 7-(5-(4-fluoro-2-(4-isopropylpyrimidin-5-yl)phenoxy)pyrimidin-4-yl)-N-(4-fluorobenzyl)-1-oxa-7-azaspiro[4.4]nonan-3-amine] gave an IC50 of 100 to 1000 nM.

Turning to `CNC(=O)[C@H]1CC[C@H](CN2CCC3(CC2)CN(c2ncncc2Oc2ccc(F)cc2C(=O)N(C)C(C)C)C3)CC1` [Example 21, 5-fluoro-N-isopropyl-N-methyl-2-((4-(7-(((1r,4r)-4-(methylcarbamoyl)cyclohexyl)methyl)-2,7-diazaspiro[3.5]nonan-2-yl)pyrimidin-5-yl)oxy)benzamide], the IC50 fell in the range of 100 to 1000 nM.

`CC(C)c1ccccc1-c1cc(F)ccc1Nc1cnccc1N1CC2(CN(CC3CCOCC3)C2)C1` [Example 30, N-(5-fluoro-2′-isopropyl-[1,1′-biphenyl]-2-yl)-4-(6-((tetrahydro-2H-pyran-4-yl)methyl)-2,6-diazaspiro[3.3]heptan-2-yl)pyridin-3-amine] had a 50% inhibitory concentration (IC50) of less than 100 nM.

`CC(C)(F)c1cc(F)ccc1-c1cc(F)ccc1Oc1cncnc1N1CC2(CN(CC3CCOCC3)C2)C1` [Example 31, 2-(5-((4′,5-difluoro-2′-(2-fluoropropan-2-yl)-[1,1′-biphenyl]-2-yl)oxy)pyrimidin-4-yl)-6-((tetrahydro-2H-pyran-4-yl)methyl)-2,6-diazaspiro[3.3]heptane] came in with a concentration for half-maximal inhibition (IC50) of less than 100 nM.

The molecule `CC(C)NS(=O)(=O)c1cc(F)ccc1Oc1cncnc1N1CC2(CN(CC3CCOCC3)C2)C1` [Example 32, 5-fluoro-N-isopropyl-2-((4-(6-((tetrahydro-2H-pyran-4-yl)methyl)-2,6-diazaspiro[3.3]heptan-2-yl)pyrimidin-5-yl)oxy)benzenesulfonamide] yielded a 50% inhibitory concentration (IC50) of less than 100 nM.

Consider `CC1(C)C(=O)Nc2cc(CN3CCC4(C3)CN(c3ncncc3Oc3ccc(F)cc3Cl)C4)ccc21` [Example 39, 6-((2-(5-(2-chloro-4-fluorophenoxy)pyrimidin-4-yl)-2,6-diazaspiro[3.4]octan-6-yl)methyl)-3,3-dimethylindolin-2-one], for which the IC50 is 100 to 1000 nM.

Molecule `CC(C)n1nccc1-c1cc(F)ccc1Oc1cnc(Cl)nc1N1CCC2(CCN(Cc3ccc4[nH]c(=O)[nH]c4c3)C2)C1` (stereo not shown) [Example 46, 5-((7-(2-chloro-5-(4-fluoro-2-(1-isopropyl-1H-pyrazol-5-yl)phenoxy)pyrimidin-4-yl)-2,7-diazaspiro[4.4]nonan-2-yl)methyl)-1,3-dihydro-2H-benzo[d]imidazol-2-one] had an IC50 of 100 to 1000 nM.

`O=c1[nH]c2ccc(CN3CCC4(CCN(c5ncncc5Oc5ccc(F)cc5-c5ccccc5C5CC5)C4)C3)cc2[nH]1` (stereo not shown) [Example 49, 5-((7-(5-((2′-cyclopropyl-5-fluoro-[1,1′-biphenyl]-2-yl)oxy)pyrimidin-4-yl)-2,7-diazaspiro[4.4]nonan-2-yl)methyl)-1H-benzo[d]imidazol-2(3H)-one] showed a concentration for half-maximal inhibition (IC50) of less than 100 nM.

`O=c1[nH]c2ccc(CN3CCC4(CCN(c5ncncc5Oc5ccc(F)cc5-c5ccccc5C(F)(F)F)C4)C3)cc2[nH]1` (stereo not shown) [Example 50, 5-((7-(5-((5-fluoro-2′-(trifluoromethyl)-[1,1′-biphenyl]-2-yl)oxy)pyrimidin-4-yl)-2,7-diazaspiro[4.4]nonan-2-yl)methyl)-1H-benzo[d]imidazol-2(3H)-one] showed a concentration for half-maximal inhibition (IC50) of less than 100 nM.

The molecule `CCOC(=O)c1csc(N2CCC3(CCN(c4ncncc4Oc4ccc(F)cc4-c4ccc(C#N)cc4C4CC4)C3)C2)n1` (stereo not shown) [Example 55, Ethyl 2-(7-(5-((4′-cyano-2′-cyclopropyl-5-fluoro-[1,1′-biphenyl]-2-yl)oxy)pyrimidin-4-yl)-2,7-diazaspiro[4.4]nonan-2-yl)thiazole-4-carboxylate] registered a half-maximal inhibitory concentration (IC50) not below 1000 nM.

`N#Cc1ccc(-c2cc(F)ccc2Oc2cncnc2N2CCC3(CCN(c4nc(C(=O)O)cs4)C3)C2)c(C2CC2)c1` (stereo not shown) [Example 56, 2-(7-(5-((4′-cyano-2′-cyclopropyl-5-fluoro-[1,1′-biphenyl]-2-yl)oxy)pyrimidin-4-yl)-2,7-diazaspiro[4.4]nonan-2-yl)thiazole-4-carboxylicacid] yielded a concentration for half-maximal inhibition (IC50) not below 1000 nM.
